From ChEMBL document CHEMBL3045725, “Synthesis and antimicrobial activity of some (3-phenyl-5-(1-phenyl-3-aryl-1H-pyrazol-4-yl)-4,5-dihydro-1H-pyrazol-1-yl)(pyridin-4-yl)methanones: new derivatives of 1,3,5-trisubstituted pyrazolines” (2013)
Converted amounts (≈) assume the structure as drawn.

Tests used:
Assay type in all cases: functional
[1] = system: Candida tropicalis; test: Antifungal activity against Candida tropicalis assessed as growth inhibition after 24 hr by NCCLS broth microdilution method
[2] = system: Bacillus subtilis; test: Antibacterial activity against Bacillus subtilis assessed as growth inhibition after 24 hr by NCCLS broth microdilution method
[3] = system: Aspergillus flavus; test: Antifungal activity against Aspergillus flavus assessed as growth inhibition after 24 hr by NCCLS broth microdilution method
[4] = system: Candida albicans; test: Antifungal activity against Candida albicans assessed as growth inhibition after 24 hr by NCCLS broth microdilution method
[5] = system: Pseudomonas aeruginosa; test: Antibacterial activity against Pseudomonas aeruginosa assessed as growth inhibition after 24 hr by NCCLS broth microdilution method
[6] = system: Aspergillus niger; test: Antifungal activity against Aspergillus niger assessed as growth inhibition after 24 hr by NCCLS broth microdilution method
[7] = system: Escherichia coli; test: Antibacterial activity against Escherichia coli assessed as growth inhibition after 24 hr by NCCLS broth microdilution method
[8] = system: Staphylococcus aureus; test: Antibacterial activity against Staphylococcus aureus assessed as growth inhibition after 24 hr by NCCLS broth microdilution method
[9] = system: Bacillus pumilus; test: Antibacterial activity against Bacillus pumilus assessed as growth inhibition after 24 hr by NCCLS broth microdilution method

O=C(c1ccncc1)N1N=C(c2ccccc2)CC1c1cn(-c2ccccc2)nc1-c1ccccc1 (racemic)
MIC [1]: 200 µg/mL (≈ 426 µM) | MIC [2]: 50 µg/mL (≈ 106 µM) | MIC [3]: > 200 µg/mL | MIC [4]: 200 µg/mL (≈ 426 µM) | MIC [5]: 50 µg/mL (≈ 106 µM) | MIC [6]: 100 µg/mL (≈ 213 µM) | MIC [7]: 50 µg/mL (≈ 106 µM) | MIC [8]: 25 µg/mL (≈ 53.2 µM) | MIC [9]: 50 µg/mL (≈ 106 µM)

O=C(c1ccncc1)N1N=C(c2ccccc2)CC1c1cn(-c2ccccc2)nc1-c1ccc(Cl)cc1 (racemic)
MIC [1]: 100 µg/mL (≈ 198 µM) | MIC [2]: 25 µg/mL (≈ 49.6 µM) | MIC [3]: 200 µg/mL (≈ 397 µM) | MIC [4]: 100 µg/mL (≈ 198 µM) | MIC [5]: 25 µg/mL (≈ 49.6 µM) | MIC [6]: > 200 µg/mL | MIC [7]: 25 µg/mL (≈ 49.6 µM) | MIC [8]: 12.5 µg/mL (≈ 24.8 µM) | MIC [9]: 25 µg/mL (≈ 49.6 µM)

COc1ccccc1-c1nn(-c2ccccc2)cc1C1CC(c2ccccc2)=NN1C(=O)c1ccncc1 (racemic)
MIC [1]: 6.25 µg/mL (≈ 12.5 µM) | MIC [2]: 6.25 µg/mL (≈ 12.5 µM) | MIC [3]: 50 µg/mL (≈ 100 µM) | MIC [4]: 6.25 µg/mL (≈ 12.5 µM) | MIC [5]: 6.25 µg/mL (≈ 12.5 µM) | MIC [6]: 50 µg/mL (≈ 100 µM) | MIC [7]: 6.25 µg/mL (≈ 12.5 µM) | MIC [8]: 6.25 µg/mL (≈ 12.5 µM) | MIC [9]: 6.25 µg/mL (≈ 12.5 µM)

COc1ccc(-c2nn(-c3ccccc3)cc2C2CC(c3ccccc3)=NN2C(=O)c2ccncc2)cc1 (racemic)
MIC [1]: 12.5 µg/mL (≈ 25 µM) | MIC [2]: 6.25 µg/mL (≈ 12.5 µM) | MIC [3]: 50 µg/mL (≈ 100 µM) | MIC [4]: 12.5 µg/mL (≈ 25 µM) | MIC [5]: 12.5 µg/mL (≈ 25 µM) | MIC [6]: 50 µg/mL (≈ 100 µM) | MIC [7]: 6.25 µg/mL (≈ 12.5 µM) | MIC [8]: 6.25 µg/mL (≈ 12.5 µM) | MIC [9]: 6.25 µg/mL (≈ 12.5 µM)

O=C(c1ccncc1)N1N=C(c2ccccc2)CC1c1cn(-c2ccccc2)nc1-c1ccc(Br)cc1 (racemic)
MIC [1]: 100 µg/mL (≈ 182 µM) | MIC [2]: 25 µg/mL (≈ 45.6 µM) | MIC [3]: 200 µg/mL (≈ 365 µM) | MIC [4]: 50 µg/mL (≈ 91.2 µM) | MIC [5]: 50 µg/mL (≈ 91.2 µM) | MIC [6]: > 200 µg/mL | MIC [7]: 50 µg/mL (≈ 91.2 µM) | MIC [8]: 12.5 µg/mL (≈ 22.8 µM) | MIC [9]: 25 µg/mL (≈ 45.6 µM)

Cc1ccc(-c2nn(-c3ccccc3)cc2C2CC(c3ccccc3)=NN2C(=O)c2ccncc2)cc1 (racemic)
MIC [1]: 50 µg/mL (≈ 103 µM) | MIC [2]: 12.5 µg/mL (≈ 25.8 µM) | MIC [3]: 100 µg/mL (≈ 207 µM) | MIC [4]: 25 µg/mL (≈ 51.7 µM) | MIC [5]: 25 µg/mL (≈ 51.7 µM) | MIC [6]: 100 µg/mL (≈ 207 µM) | MIC [7]: 12.5 µg/mL (≈ 25.8 µM) | MIC [8]: 6.25 µg/mL (≈ 12.9 µM) | MIC [9]: 12.5 µg/mL (≈ 25.8 µM)

OC(Cn1cncn1)(Cn1cncn1)c1ccc(F)cc1F [FLUCONAZOLE]
MIC [1]: 6.25 µg/mL (≈ 20.4 µM) | MIC [3]: 12.5 µg/mL (≈ 40.8 µM) | MIC [4]: 3.12 µg/mL (≈ 10.2 µM) | MIC [6]: 12.5 µg/mL (≈ 40.8 µM)

O=C(c1ccncc1)N1N=C(c2ccccc2)CC1c1cn(-c2ccccc2)nc1-c1ccc(F)cc1 (racemic)
MIC [1]: 50 µg/mL (≈ 103 µM) | MIC [2]: 12.5 µg/mL (≈ 25.6 µM) | MIC [3]: 200 µg/mL (≈ 410 µM) | MIC [4]: 50 µg/mL (≈ 103 µM) | MIC [5]: 12.5 µg/mL (≈ 25.6 µM) | MIC [6]: 200 µg/mL (≈ 410 µM) | MIC [7]: 12.5 µg/mL (≈ 25.6 µM) | MIC [8]: 6.25 µg/mL (≈ 12.8 µM) | MIC [9]: 25 µg/mL (≈ 51.3 µM)

O=C(O)c1cn(C2CC2)c2cc(N3CCNCC3)c(F)cc2c1=O [CIPROFLOXACIN]
MIC [2]: 3.12 µg/mL (≈ 9.43 µM) | MIC [5]: 3.12 µg/mL (≈ 9.43 µM) | MIC [7]: 3.12 µg/mL (≈ 9.43 µM) | MIC [8]: 3.12 µg/mL (≈ 9.43 µM) | MIC [9]: 3.12 µg/mL (≈ 9.43 µM)
